From patent publication US10285944B2 (ALFASIGMA S.P.A., priority 2005, dated 2019)

How the values were obtained:
[1] = test system: Crohn's patients characterized by a protein C reactive value higher than normal; assay: Crohn's patients with protein C reactive value higher than normal (subgroup of the trial); type: in vivo, human; settings: subgroup with protein C value higher than normal values; 16 patients treated with rifaximin
[2] = test system: patients affected by Crohn's disease; assay: Clinical multi-center randomised trial versus placebo in Crohn's disease; type: in vivo, human; settings: 27 patients
Description: 55 Crohn's disease patients in acute, mild to moderate grade, phase, having CDAI (Crohn Disease Active Index) value between 200 and 300, have been recruited. The primary end point was represented by the percentage of the patients in clinic remission defined as CDAI lower than 150 points at the end of the study. The patients, randomised in two groups: group A, of 27 patients and group B of 28 patients, have been treated for 12 weeks according to the following therapeutic schemes:
Group B: placebo, administrated 2 times in a day in a such quantity to correspond to the content of the dose of the active principle.

[3] = depending on the dose and the treatment duration; cited from earlier work
[4] = CDAI lower than 150 after 12 weeks, rifaximin 800 mg 2 times a day (preparation of example 3)

| SMILES | Number of clinical remission [1] | clinical remission, percentage of the patients [1] | therapeutic failure, percentage of the patients [1] | therapeutic failure, percentage of the patients ([2]; 12 weeks, rifaximin 800 mg 2 times a day) | Number of clinical remission [2, 4] | clinical remission, percentage of the patients [2, 4] | incidence of side effects [3] |
| --- | --- | --- | --- | --- | --- | --- | --- |
| CO[C@H]1/C=C/O[C@@]2(C)Oc3c(C)c(O)c4c(O)c(c5c(nc6cc(C)ccn65)c4c3C2=O)NC(=O)/C(C)=C\C=C\[C@H](C)[C@H](O)[C@@H](C)[C@@H](O)[C@@H](C)[C@H](OC(C)=O)[C@@H]1C [rifaximin] | 10 | (62.5%) | (0%) | (3.4%) | 14 | (51.9%) | – |
| Cc1ncc([N+](=O)[O-])n1CCO [metronidazole] | – | – | – | – | – | – | 10-20% |
